This experiment concerns CEM cells HIV-1 protection, formazan growth assay. Description: NCI AIDS Antiviral Assay. As to conditions: for IC50: measured here: growth of uninfected CEM cells. In a few lines: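 Protection of CEM cells against HIV-1 was scored from cell growth (soluble formazan) across five concentrations, with parallel uninfected cells. Lack of protection may reflect toxicity.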

SMILES strings stand for the structures. Values joined by “and” are separate entries in the source; they are usually repeats but may differ in a detail not shown here. Equal values may be shown once. Active and inactive are the calls of the source.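 The calls were made as follows: active = compounds giving half or more protection of infected cells from virus-caused growth loss, again on retest; inactive = the rest.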

On to `CC(=O)N1C(=O)c2cc3ccccc3cc21`, for which the EC50 was over 200 µM and the IC50 is over 100 µM.

With `CC12NC(=C(C#N)C#N)C(C#N)=C3NC(N)=C(C#N)C(=C31)Oc1ccccc12` (stereo unspecified), the EC50 is over 200 µM and the IC50 came to 5.89 µM.

For `Cc1ccc([P+](CCN2C(=O)c3ccccc3C2=O)(c2ccc(C)cc2)c2ccc(C)cc2)cc1`, the EC50 was over 200 µM and the concentration for half-maximal inhibition (IC50) came out at 10 µM.

Regarding `O=C1NC(N2CCCCC2)=N/C1=C\c1cccs1`, the EC50 was over 200 µM and the IC50 came to 151 µM.

As to `CS(=O)CCN=Cc1ccc(N=Nc2ccc(O)cc2)cc1` (stereo unspecified), the EC50 was over 200 µM and the IC50 is 1.78 µM.

As for `O=C(NC(O)C(Cl)(Cl)Cl)NC(O)C(Cl)(Cl)Cl` (stereo unspecified), the EC50 was over 200 µM and the IC50 is over 200 µM.

As for `Cc1cc(S(=O)(=O)NC(=NCCc2ccccc2)NN)c(S)cc1Cl`, the EC50 was over 200 µM and the half-inhibitory concentration (IC50) is 25.7 µM.

Take `BrCc1ccc2ccc3ccc(CBr)nc3c2n1`: the EC50 was over 200 µM and the half-maximal inhibitory concentration (IC50) was found to be 3.72 µM.

Take `COC(=O)NC(Cc1ccccc1)NC(C)=O` (stereo unspecified): the EC50 is over 200 µM and the IC50 is over 200 µM.

As for `O=C1CCC(=O)N2CCCCN12`, the EC50 is over 407 µM and the IC50 was over 407 µM.

Consider `Cc1nc2ccccc2c(=O)n1Nc1ccc(C(=O)O)cc1`, for which the result was inactive.

`O=c1[nH]c(CO)nc(O)c1Cl`: the EC50 was over 200 µM and the IC50 was over 200 µM.

For the compound `S=P1(c2ccccc2)Nc2ccc(Cl)cc2N1` (stereo unspecified), the EC50 was over 468 µM and the IC50 amounted to 9.12 µM.

In the case of `O=C(C[P+](c1ccccc1)(c1ccccc1)c1ccccc1)c1ccccc1`, the EC50 is over 200 µM; the IC50 was 32.4 µM and 31.6 µM and 37.2 µM.

Turning to `ClC1c2ccccc2C2(c3ccccc3)OOC1(c1ccccc1)O2` (stereo unspecified), the result was inactive.

With `Nc1ncnc2c1Sc1nc(Cl)ccc1N2`, the EC50 is over 14.8 µM and the half-inhibitory concentration (IC50) is over 14.8 µM.

With `CO[C@H]1CC[C@@]2(C)C(CC[C@@]3(C)CC4=C[C@H]5C(C)(CO)C(=O)CCC5(C)[C@H]4CCC32)C1(C)C` (stereo partly specified), the EC50 was over 100 µM and the IC50 was over 100 µM.

Turning to `CC(C)[Si](O[C@@H]1CCC[C@@]23O[C@@H]2CC2C(=O)c4c(O)cccc4C(=O)[C@@]2(O)[C@@H]13)(C(C)C)C(C)C` (stereo partly specified), the EC50 is over 200 µM and the IC50 amounted to 14.1 µM.

In the case of `C=CCN1C(=O)C/C(=C2/CCC(=O)N2CC=C)C1=O`, the EC50 is over 955 µM and the IC50 is over 955 µM.

On to `NC1CCCCC1NCCNC1CCCCC1N` (stereo unspecified), for which the EC50 was over 200 µM and the IC50 was 178 µM.

For `CCOP(=O)(OCC)/C(F)=C/c1ccccc1`, the EC50 is over 200 µM and the IC50 is over 200 µM.

Consider `N#Cc1ccc(C2Oc3ccc(Cl)cc3C=C2[N+](=O)[O-])cc1` (stereo unspecified), for which the EC50 is over 200 µM and the concentration for half-maximal inhibition (IC50) amounted to 0.977 µM.

As to `CC(=O)C(CCC#N)(CCC#N)CCC#N`, the EC50 was over 200 µM and the IC50 was over 200 µM.

As for `COC(=O)c1c(C(=O)OC)c(-c2ccccc2)n(-c2ccccc2)c(=O)c1-c1ccccc1`, the outcome was inactive.

In the case of `Cc1n[nH]c2ccc(Br)cc2c1=O`, the EC50 was over 50.1 µM and the IC50 was over 50.1 µM.

As for `CCC[CH2][Sn]([CH2]CCC)([O]C(=O)c1cc(F)ccc1F)[O]C(=O)c1cc(F)ccc1F`, the EC50 was over 13.2 µM and the IC50 was found to be 1 µM.

Regarding `CCOP(=O)(OCC)/C(C#N)=C\c1ccccc1`, the EC50 was over 355 µM and the IC50 is over 355 µM.

As to `COC(=O)C1=C(C(=O)OC)C2C(C)=CC(C)=CN2C(C(=O)OC)=C1C(=O)OC` (stereo unspecified), the EC50 is over 200 µM and the IC50 is over 200 µM.

`Nc1nc(Cl)nc(Cl)n1`: the EC50 was over 200 µM and the IC50 was over 200 µM.

As to `COC1=C(C)C(=O)c2nc(Cl)cc(C)c2C1=O`, the outcome was inactive.

Consider `O=C1/C(=C/c2ccc([N+](=O)[O-])cc2)Oc2cc(O)ccc21`, for which the EC50 is over 200 µM and the IC50 turned out to be 35.5 µM.

As to `CCOC(=O)c1cnc2c(cnn2CC)c1NN=C(C)C`, the EC50 is over 200 µM and the IC50 was found to be 117 µM.

As to `Cc1nc2c(c(=O)[nH]1)OCN(C)C2`, the EC50 is over 200 µM and the IC50 came to 148 µM.

For the compound `CCOC(=O)NC(Nc1ccc(F)cc1)(C(=O)OCC)C(F)(F)F` (stereo unspecified), the result was inactive.

Regarding `O=C(CCCCCCCCC(=O)OCC1OC(n2cnc3c(=O)[nH]cnc32)C(O)C1O)OCC1OC(n2cnc3c(=O)[nH]cnc32)C(O)C1O` (stereo unspecified), the EC50 was over 355 µM and the 50% inhibitory concentration (IC50) is over 355 µM.

Turning to `CC1CCN(C(C)C)P(=S)(Cc2ccccc2)O1` (stereo unspecified), the EC50 is over 200 µM and the IC50 stood at 123 µM.

Consider `O=c1[nH]nc2ccccc2c1Cc1ccccc1`, for which the EC50 was over 151 µM and the IC50 was over 151 µM.

As to `CC1COB(c2ccccc2)OCC(C)N1CNC(=O)C1=C(O)C2(O)C(O)=C3C(=O)C4C(O)=CC=CC4C(C)(O)C3CC2C(N(C)C)C1=O` (stereo unspecified), the 50% effective concentration (EC50) was 15.1 µM and the IC50 was found to be 19.5 µM.

Regarding `C/C(=N\Nc1ccc2ccccc2n1)c1ccccc1O`, the EC50 was over 200 µM and the IC50 came out at 6.46 µM.

Consider `CC1=CC(=O)/C(=C\N2C(=O)CC(=O)NC2=S)C(=O)O1`, for which the EC50 was over 100 µM and the half-inhibitory concentration (IC50) is over 100 µM.

As for `COC(=O)C(Cc1ccc2c(c1)OCO2)(NC(=O)c1ccccc1)P(=O)(OC)OC` (stereo unspecified), the EC50 was over 575 µM and the concentration for half-maximal inhibition (IC50) was over 575 µM.

As for `C=C1[C@H]2O[C@H]2[C@@H](OC(C)=O)[C@@]2(C)[C@@H](OC(C)=O)C[C@@H](OC(=O)CCC)[C@@](C)(O)[C@@H]2[C@@H](OC(C)=O)[C@]2(O)[C@@H](C)C(=O)O[C@H]2[C@H]1Cl`, the EC50 is over 200 µM and the IC50 is 174 µM.

Consider `CC(=O)NC1CC(C(C)(C)NC(C)=O)CC=C1C` (stereo unspecified), for which the EC50 is over 269 µM and the IC50 is over 269 µM.

Turning to `CC(=O)O[C@H]1CC[C@H]2[C@@H]3CCC(C(C)=O)[C@H](C(=O)O)[C@H]3CC[C@]12C` (stereo partly specified), the EC50 is over 200 µM and the IC50 is over 200 µM.

On to `C#CC(O)CS(=O)(=O)c1ccccc1` (stereo unspecified), for which the EC50 is over 100 µM and the IC50 is over 100 µM.

As for `CC(C)(C)OC(=O)N(CC1OC(n2cnc3c(N)ncnc32)C2OC(C)(C)OC12)OC(=O)C(C)(C)C` (stereo unspecified), the EC50 is over 200 µM and the concentration for half-maximal inhibition (IC50) is over 200 µM.

On to `O=C(Cc1ccccc1)OCCOCCOCCOCCOCCOCCOCCOCCOCCOC(=O)Cc1ccccc1`, for which the result was inactive.

As for `COc1ccc2nc(/N=C/N(C)C)sc2c1`, the EC50 is over 200 µM and the IC50 was over 200 µM.

`C[C@@H](c1ccccc1)N1C[C@@H](c2ccc3c(c2)OCO3)[C@@H]2C(=O)CCC[C@@H]21`: the EC50 was over 200 µM and the IC50 was determined as 112 µM.

As for `CCC[CH2][Sn]1([CH2]CCC)[O]Cc2nc(C)ccc2[O]1`, the EC50 was over 14.1 µM and the IC50 turned out to be 3.16 µM.

Regarding `CC1CCC2C(C(=O)O[C@H]3C4C=CO[C@@H](OC5OC(CO)C(O)C(O)C5O)C4[C@@]4(CO)O[C@@H]34)=CO[C@@H](OC3OC(CO)C(O)C(O)C3O)C12` (stereo partly specified), the EC50 was over 200 µM and the IC50 was over 200 µM.

As to `CC1=C2CCCCCC2(O)OC1=O` (stereo unspecified), the EC50 was over 646 µM and the IC50 was over 646 µM.

As to `O=C(CCl)Nc1cccc2ccccc12`, the EC50 was over 200 µM and the IC50 came to 3.24 µM.

`CCOC(=O)CC(=O)Cc1oc2c(C(C)=O)c(O)c(C)c(O)c2c1C`: the EC50 was over 200 µM and the IC50 came out at 21.4 µM.

As for `CC(C)[C@](O)(C(=O)OCC1=CCN2CC[C@@H](O)[C@@H]12)[C@H](C)O`, the EC50 is over 417 µM and the IC50 is over 417 µM.

In the case of `O=c1c2ccccc2nc2ccc3c(Cl)[nH][nH]c3c12`, the outcome was inactive.

Take `COC1CCC2=CCC3C(=O)N(c4ccccc4)C(=O)C3C21` (stereo unspecified): the EC50 is over 603 µM and the concentration for half-maximal inhibition (IC50) is over 603 µM.

Consider `Cc1cc2oc(C)c(S(=O)(=O)NC(=O)Nc3ccc(Cl)cc3)c(=O)c2c(=O)o1`, for which the EC50 was over 200 µM and the IC50 came to 107 µM.

With `Cc1ccc(Cl)c2c(=O)c3ccc([N+](=O)[O-])cc3sc12`, the EC50 is over 151 µM and the IC50 is over 151 µM.

Turning to `CC1(C)SCc2nc3ccccc3n21`, the EC50 was over 200 µM and the IC50 was determined as 186 µM.

With `O=NNc1ccc2ccccc2n1`, the EC50 was over 200 µM and the concentration for half-maximal inhibition (IC50) was over 200 µM.

Consider `CCOC(=O)c1cccc2c(Nc3ccc(S(=O)(=O)Nc4cc(C)on4)cc3)c3ccccc3nc12`, for which the EC50 was over 200 µM and the 50% inhibitory concentration (IC50) is 25.1 µM.

For `CCN(CC)c1ccc2c(c1)N=C1N=CC=CN1C2(c1ccc(N(C)C)cc1)c1ccc(N(C)C)cc1`, the result was inactive.

In the case of `O=S(=O)(Sc1ccccc1)C(c1ccccc1)c1ccccc1`, the EC50 was over 132 µM and the IC50 was 21.4 µM.

Take `Cc1c(Cl)cccc1NC(=O)C(=O)C1C(=O)NC(=O)NC1=O`: the EC50 was over 398 µM and the IC50 is over 398 µM.

As to `O=[N+]([O-])c1cc([N+](=O)[O-])c(/C=C/c2ccc(Cl)c(Cl)c2)cc1/C=C/c1ccc(Cl)c(Cl)c1`, the EC50 was over 19.5 µM and the IC50 was over 19.5 µM.

For the compound `COc1cc2cccc(N=Cc3c(Br)ccc(OC)c3OC(C)C)c2cc1OC`, the EC50 is over 3.16 µM and the IC50 is over 3.16 µM.

As to `Cc1ccc(S(=O)(=O)N/N=C(/CC(=O)c2c(C)n([O-])c3ccccc3[n+]2=O)C(=O)Nc2ccc(C)c(C)c2)cc1`, the EC50 is over 6.46 µM and the IC50 is over 6.46 µM.

For the compound `Brc1ccc2c(c1)C1(c3cc(Br)ccc3-2)c2cc(Br)ccc2-c2ccc(Br)cc21`, the EC50 is over 40.7 µM and the IC50 was over 40.7 µM.

Take `O=S(=O)(O)CN(CCN(CS(=O)(=O)O)CS(=O)(=O)O)CS(=O)(=O)O`: the EC50 was over 200 µM and the IC50 stood at 20.4 µM.

As to `CN(C)c1ccc(-c2ccc(N(C)C)c3n[se]nc23)c2n[se]nc12`, the EC50 is over 200 µM and the IC50 was over 200 µM.

Consider `CCN(CC)C(=O)C(C)=O`, for which the EC50 is over 1740 µM and the half-maximal inhibitory concentration (IC50) was over 1740 µM.

Values taken from PubChem BioAssay AID179 (DTP/NCI, 2004).
